Measurements from PubChem BioAssay (NCI).
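How tested: cells in 96-well plates exposed to compound for 48 hours at five concentrations. TGI is the concentration that stops growth completely.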

How the values were obtained:
Assay in all cases: growth of human tumour cells (NCI), 48 h
HCT-15 colon = system: HCT-15 colon
MCF7 breast = system: MCF7 breast
ACHN renal = system: ACHN renal
IGROV1 ovarian = system: IGROV1 ovarian
786-0 renal = system: 786-0 renal
SK-OV-3 ovarian = system: SK-OV-3 ovarian
HOP-92 NSCLC = system: HOP-92 NSCLC
SF-295 CNS = system: SF-295 CNS
U251 CNS = system: U251 CNS
NCI-H226 lung = system: NCI-H226 lung

Compound	TGI (HCT-15 colon)	TGI (MCF7 breast)	TGI (ACHN renal)	TGI (IGROV1 ovarian)	TGI (786-0 renal)	TGI (SK-OV-3 ovarian)	TGI (HOP-92 NSCLC)	TGI (SF-295 CNS)	TGI (U251 CNS)	TGI (NCI-H226 lung)
O=C(O)CO/N=C1/C(c2c(O)[nH]c3ccccc23)=Nc2ccccc21	> 100 µM	> 100 µM	> 100 µM	> 100 µM	> 100 µM	68.1 µM	> 100 µM	> 100 µM	> 100 µM	–
CCOC(=O)c1c(NC(=O)c2ccc(Br)cc2)sc2c1CCCC2	–	> 100 µM	> 100 µM	> 100 µM	> 100 µM	–	–	> 100 µM	> 100 µM	> 100 µM
COc1ccccc1N1C(=O)CC(=O)N(C(=O)CCCCCCCCC(=O)N2C(=O)CC(=O)N(c3ccccc3OC)C2=S)C1=S	> 100 µM	> 100 µM	> 100 µM	–	> 100 µM	> 100 µM	> 100 µM	> 100 µM	> 100 µM	> 100 µM
COC(=O)C1=NN2c3ccccc3CN([C@@H](C)c3ccccc3)C(=O)[C@H]2[C@@H]1C	> 100 µM	> 100 µM	> 100 µM	–	> 100 µM	> 100 µM	> 100 µM	> 100 µM	> 100 µM	> 100 µM
CC(=O)C1=NN(c2ccccc2)C2(S1)SC(c1ccccc1)(c1ccccc1)c1ccccc12 (stereo not drawn)	> 100 µM	–	> 100 µM	> 100 µM	> 100 µM	> 100 µM	46.1 µM	> 100 µM	> 100 µM	> 100 µM
Cc1cc(-c2ccc(C(=O)C(c3ccccc3)(c3ccccc3)c3ccccc3)[nH]2)on1	41.6 µM	> 100 µM	–	73.9 µM	40.7 µM	> 100 µM	51.8 µM	97.7 µM	37.1 µM	42.5 µM
Cc1ccc(Nc2cn(COCc3ccccc3)c(=O)[nH]c2=O)cc1	> 100 µM	> 100 µM	> 100 µM	> 100 µM	> 100 µM	–	> 100 µM	> 100 µM	> 100 µM	> 100 µM
CSc1nc(C)c(CCCl)c(Cl)n1	> 100 µM	–	> 100 µM	> 100 µM	> 100 µM	> 100 µM	–	> 100 µM	> 100 µM	–
Nc1cc(N)c(N=Nc2cccc3c(S(=O)(=O)O)cccc23)cc1N=Nc1cc([N+](=O)[O-])ccc1O	61 µM	> 100 µM	78.1 µM	> 100 µM	> 100 µM	> 100 µM	98.7 µM	> 100 µM	> 100 µM	–
CCN1C(=O)CS/C1=N\NC(=O)CSc1nc2ccccc2c(=O)n1CC	> 100 µM	> 100 µM	> 100 µM	> 100 µM	> 100 µM	> 100 µM	–	> 100 µM	> 100 µM	> 100 µM
CN(C)Cc1[nH]c2ccccc2c1C(=O)c1ccccc1	> 100 µM	–	> 100 µM	> 100 µM	> 100 µM	–	> 100 µM	> 100 µM	> 100 µM	> 100 µM
O=C1c2ccccc2C(=O)c2c(O)c(NCCNCCO)cc(O)c21	14.1 µM	–	8.93 µM	6.62 µM	14.1 µM	–	24.6 µM	22.2 µM	–	14.9 µM
CCCN(CCC)C(=O)c1c(Cl)c2cccnc2n2c(C)cnc12	–	> 100 µM	> 100 µM	> 100 µM	> 100 µM	> 100 µM	> 100 µM	> 100 µM	–	> 100 µM
COc1ccc(C2C(Cl)C(=O)N2NC(=O)c2ccccc2O)cc1OC (stereo not drawn)	> 100 µM	–	> 100 µM	> 100 µM	> 100 µM	> 100 µM	–	> 100 µM	> 100 µM	> 100 µM
COc1cc2c(cc1OCCCCN1CCN(CCCCOc3cc4c(cc3OC)C(=O)N3CCC[C@H]3C=N4)CC1)N=C[C@@H]1CCCN1C2=O	–	45 µM	> 100 µM	–	41.1 µM	> 100 µM	0.255 µM	0.242 µM	> 100 µM	0.0891 µM
C=C(CC)C[C@@H]1C[C@]2(C(=O)OC)c3[nH]c4ccccc4c3CCN2C1=O	34.5 µM	47.2 µM	76 µM	58 µM	33.5 µM	63.9 µM	38.1 µM	31.1 µM	40.8 µM	–
CC1(C)N=C(Oc2ccccc2)n2nccc2N1	> 100 µM	–	> 100 µM	> 100 µM	> 100 µM	> 100 µM	> 100 µM	> 100 µM	> 100 µM	> 100 µM
CC(=O)Oc1cc(S(=O)(=O)Nc2n[nH]c(N)n2)c(S)cc1Cl	> 100 µM	> 100 µM	> 100 µM	> 100 µM	> 100 µM	–	> 100 µM	> 100 µM	> 100 µM	–
COc1nc(OC)nc(Sc2ccc(Sc3ccc(Sc4nc(OC)nc(OC)n4)cc3)cc2)n1	> 100 µM	–	> 100 µM	> 100 µM	> 100 µM	> 100 µM	> 100 µM	> 100 µM	> 100 µM	> 100 µM
Cc1ccc(N2C(=O)C(=O)N(/N=C3\C(=O)Nc4ccccc43)C2=S)cc1	> 100 µM	> 100 µM	> 100 µM	> 100 µM	> 100 µM	> 100 µM	> 100 µM	> 100 µM	> 100 µM	–
NCCCCCNOCCCN	> 100 µM	–	> 100 µM	> 100 µM	> 100 µM	> 100 µM	> 100 µM	> 100 µM	> 100 µM	> 100 µM
COC1C(OC(N)=O)C(O)C(Oc2ccc3c(O)c(NC(=O)c4ccc(O)c(CC=C(C)C)c4)c(=O)oc3c2C)OC1(C)C (stereo not drawn)	> 100 µM	> 100 µM	> 100 µM	> 100 µM	> 100 µM	> 100 µM	–	–	> 100 µM	–
Cc1ccc(F)c2c(=O)cc(-c3ccccc3)[nH]c12	> 100 µM	–	> 100 µM	> 100 µM	> 100 µM	> 100 µM	> 100 µM	> 100 µM	> 100 µM	> 100 µM
CCOC(=O)NC(=S)NC(C)c1ccccc1 (stereo not drawn)	> 100 µM	> 100 µM	> 100 µM	> 100 µM	> 100 µM	> 100 µM	–	> 100 µM	> 100 µM	> 100 µM
